Source: article PMC6264278, “Corydaline Inhibits Multiple Cytochrome P450 and UDP-Glucuronosyltransferase Enzyme Activities in Human Liver Microsomes” (Molecules, 2011)
Where two headings read alike, the source gives them in different places.

How the values were obtained:
CYP3A = target: T1, CYP3A (Homo sapiens, UniProt P08684); test: CYP3A midazolam 1'-hydroxylation inhibition, cocktail assay in pooled human liver microsomes; format: in vitro ADME; conditions: 2.5 μM midazolam
T1 construct: using pooled human liver microsomes; tissue BD Gentest Co. H161; host or cells: pooled human liver microsomes
T1 sequence (P08684 2-503): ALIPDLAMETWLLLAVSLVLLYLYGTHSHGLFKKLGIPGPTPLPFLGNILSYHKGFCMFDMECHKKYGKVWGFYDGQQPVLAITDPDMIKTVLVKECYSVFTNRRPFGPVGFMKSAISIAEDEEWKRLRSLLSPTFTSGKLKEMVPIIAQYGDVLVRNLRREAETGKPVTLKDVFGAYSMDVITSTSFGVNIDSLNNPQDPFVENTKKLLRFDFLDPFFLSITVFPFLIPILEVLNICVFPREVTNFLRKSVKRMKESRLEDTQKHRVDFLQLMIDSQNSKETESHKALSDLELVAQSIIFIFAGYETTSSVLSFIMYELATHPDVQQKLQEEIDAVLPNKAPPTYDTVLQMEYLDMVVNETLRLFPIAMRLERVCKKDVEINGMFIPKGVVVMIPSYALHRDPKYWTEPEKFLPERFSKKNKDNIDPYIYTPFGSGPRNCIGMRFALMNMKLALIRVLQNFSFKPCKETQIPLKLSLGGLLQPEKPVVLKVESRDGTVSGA
Procedure: (§1) Phenacetin O-deethylase, coumarin 7-hydroxylase, amodiaquine N-deethylase, diclofenac 4-hydroxylase, S-mephenytoin 4-hydroxylase, bufuralol hydroxylase, and midazolam 1’-hydroxylase activities were determined as probe activities for CYP1A2, CYP2A6, CYP2C8, CYP2C9, CYP2C19, CYP2D6, and CYP3A4, respectively, using cocktail incubation and liquid chromatography-tandem mass spectrometry (LC/MS/MS). The incubation mixtures were prepared in a total volume of 200 μL, as follows: pooled human liver microsomes (0.25 mg/mL), 1.3 mM NADPH, 3.3 mM MgCl2, 50 mM potassium phosphate buffer (pH 7.4), and a cocktail of probe substrates and various concentrations of corydaline (1−200 μM). The substrates were used at concentrations approximately equal to their respective Km values: 50 μM phenacetin, 2.5 μM coumarin, 2.5 μM amodiaquine, 10 μM diclofenac, 100 μM S-mephenytoin, 5 μM bufuralol, and 2.5 μM midazolam. After a 3-min pre-incubation period at 37 °C, the reactions were initiated by addition of an NADP generating system and incubated for 20 min at 37 °C in a shaking water bath. After incubation, the reaction was stopped by placement of the tubes on ice and addition of 100 μL of ice-cold methanol containing internal standards (^13C2,^15N-acetaminophen for acetaminophen and N-desethylamodiaquine, d5-7-hydroxycoumarin for 7-hydroxycoumarin, ^13C6-4-hydroxydiclofenac for 4-hydroxydiclofenac, d3-4-hydroxy-mephenytoin for 4-hydroxymephenytoin and hydroxymidazolam, d9-1-hydroxybufuralol for 1-hydroxybufuralol). The incubation mixtures were then centrifuged at 13,000 × g for 5 min. All incubations were performed in triplicate and the mean values were used. […] The reaction was started by addition of a cocktail of CYP probe substrates.
(§2) All 7 metabolites produced from the cocktail of CYP isoform-specific substrates were simultaneously determined by LC/MS/MS [25]. […] Quantification was performed by selected reaction monitoring (SRM) of the [M+H]^+ ion and the related product ion for each metabolite. […]

CYP1A2 = target: T2, CYP1A2 (Homo sapiens, UniProt P05177); test: CYP1A2 phenacetin O-deethylation inhibition, cocktail assay in pooled human liver microsomes; format: in vitro ADME; conditions: 50 μM phenacetin, no inhibition at 200 μM of corydaline; for IC50 no preincubation, CYP1A2 phenacetin O-deethylation: pooled human liver microsomes (H161)
T2 construct: using pooled human liver microsomes; tissue BD Gentest Co. H161; host or cells: pooled human liver microsomes
T2 sequence (P05177 1-516): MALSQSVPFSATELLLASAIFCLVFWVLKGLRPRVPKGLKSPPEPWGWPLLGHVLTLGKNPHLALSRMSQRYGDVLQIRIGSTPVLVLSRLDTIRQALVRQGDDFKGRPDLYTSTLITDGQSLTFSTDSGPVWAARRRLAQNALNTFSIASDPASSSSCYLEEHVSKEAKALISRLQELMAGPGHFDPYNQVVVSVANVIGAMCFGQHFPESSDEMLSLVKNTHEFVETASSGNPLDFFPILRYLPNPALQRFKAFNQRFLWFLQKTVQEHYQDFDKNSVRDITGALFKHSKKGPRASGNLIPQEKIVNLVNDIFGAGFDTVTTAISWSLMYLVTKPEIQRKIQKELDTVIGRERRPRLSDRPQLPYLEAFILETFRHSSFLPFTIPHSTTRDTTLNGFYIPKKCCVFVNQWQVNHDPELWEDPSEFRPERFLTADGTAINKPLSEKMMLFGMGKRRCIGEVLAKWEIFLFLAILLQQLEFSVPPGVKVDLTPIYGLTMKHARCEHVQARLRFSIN
Procedure: as §1, §2

COc1cc2c(cc1OC)C1C(C)c3ccc(OC)c(OC)c3CN1CC2 (stereo not drawn) [Corydaline, 2,3,9,10-tetramethoxy-13-methyl-5,8,13,13a-tetrahydro-6H-isoquino[3,2-a]isoquinoline]
IC50 no preincubation, CYP3A midazolam 1'-hydroxylation (CYP3A; pooled human liver microsomes (H161)): negligible inhibition
IC50 (CYP3A; pooled human liver microsomes (H161), read-out: IC50 no preincubation, CYP3A midazolam 1'-hydroxylation): > 200 µM
IC50 (CYP3A; pre-incubated 30 min with NADPH, mean ± SD, n = 3, read-out: IC50 with preincubation, CYP3A midazolam 1'-hydroxylation): 67.4 ± 9.8 µM
IC50 no preincubation, CYP1A2 phenacetin O-deethylation (CYP1A2): negligible inhibition
IC50 no preincubation, CYP1A2 phenacetin O-deethylation (CYP1A2; listed as corydaline): No inhibition **
IC50 with preincubation, CYP1A2 phenacetin O-deethylation (CYP1A2; pre-incubated 30 min with NADPH): No inhibition **
